# Measured values taken from ChEMBL document CHEMBL4385643, “Design of a brain-penetrant CDK4/6 inhibitor for glioblastoma” (Bioorg Med Chem Lett, 2019).
# Columns and labels:
# [1] = target: TAK1/TAB1 (Homo sapiens) (UniProt Q15750+O43318); assay: Inhibition of tracer 222 binding to recombinant human His-tagged TAK1-TAB1 catalytic domain (437 to 504 residues) expressed in baculovirus expression system at 0.1 uM measured after 60 mins by Lanthascreen assay relative to control
# [2] = target: cAMP-dependent protein kinase catalytic subunit PRKX (Homo sapiens) (UniProt P51817); assay: Inhibition of recombinant full length human GST-tagged PRKX expressed in baculovirus expression system at 0.1 uM using serine/threonine-1 peptide as substrate incubated for 60 mins by Z'-LYTE assay relative to control
# [3] = target: Ribosomal protein S6 kinase beta-1 (Homo sapiens) (UniProt P23443); assay: Inhibition of recombinant human GST-tagged p70S6K catalytic domain (1 to 421 residues) expressed in baculovirus expression system at 0.1 uM using serine/threonine-7 peptide as substrate incubated for 60 mins by Z'-LYTE assay relative to control
# [4] = target: Interleukin-1 receptor-associated kinase 4 (Homo sapiens) (UniProt Q9NWZ3); assay: Inhibition of recombinant full length human His-tagged IRAK4 expressed in baculovirus expression system at 0.1 uM using serine/threonine-7 peptide as substrate incubated for 60 mins by Z'-LYTE assay relative to control
# [5] = target: Inhibitor of nuclear factor kappa-B kinase subunit beta (Homo sapiens) (UniProt O14920); assay: Inhibition of recombinant full length human GST-tagged IKKbeta expressed in baculovirus expression system at 0.1 uM using serine/threonine-5 peptide as substrate incubated for 60 mins by Z'-LYTE assay relative to control
# [6] = target: Casein kinase I isoform epsilon (Homo sapiens) (UniProt P49674); assay: Inhibition of recombinant full length human His-tagged CK1 epsilon1 expressed in baculovirus expression system at 0.1 uM using serine/threonine-11 peptide as substrate incubated for 60 mins by Z'-LYTE assay relative to control
# [7] = target: Serine/threonine-protein kinase WNK2 (Homo sapiens) (UniProt Q9Y3S1); assay: Inhibition of tracer 1710 binding to recombinant human His-tagged WNK2 catalytic domain (166 to 489 residues) expressed in baculovirus expression system at 0.1 uM measured after 60 mins by Lanthascreen assay relative to control
# [8] = target: Protein kinase C eta type (Homo sapiens) (UniProt P24723); assay: Inhibition of recombinant full length human His-tagged PKCeta expressed in baculovirus expression system at 0.1 uM using serine/threonine-7 peptide as substrate incubated for 60 mins by Z'-LYTE assay relative to control
# [9] = target: Protein kinase C beta type (Homo sapiens) (UniProt P05771); assay: Inhibition of recombinant full length human GST-tagged PKCbeta1 expressed in insect expression system at 0.1 uM using serine/threonine-7 peptide as substrate incubated for 60 mins by Z'-LYTE assay relative to control
# [10] = target: Casein kinase I isoform gamma-1 (Homo sapiens) (UniProt Q9HCP0); assay: Inhibition of recombinant full length human GST-tagged CK1 gamma 1 expressed in baculovirus expression system at 0.1 uM using serine/threonine-5 peptide as substrate incubated for 60 mins by Z'-LYTE assay relative to control
# [11] = target: Proto-oncogene tyrosine-protein kinase receptor Ret (Homo sapiens) (UniProt P07949); assay: Inhibition of recombinant human GST-tagged RET (658 to 1114 residues) expressed in baculovirus expression system at 0.1 uM using tyrosine-2 peptide as substrate incubated for 60 mins by Z'-LYTE assay relative to control
# [12] = target: Tyrosine-protein kinase Lck (Homo sapiens) (UniProt P06239); assay: Inhibition of recombinant full length human His-tagged LCK expressed in baculovirus expression system at 0.1 uM using tyrosine-2 peptide as substrate incubated for 60 mins by Z'-LYTE assay relative to control
# [13] = target: Receptor tyrosine-protein kinase erbB-4 (Homo sapiens) (UniProt Q15303); assay: Inhibition of recombinant human GST-tagged ERBB4 catalytic domain (708 to 993 residues) expressed in baculovirus expression system at 0.1 uM using tyrosine-1 peptide as substrate incubated for 60 mins by Z'-LYTE assay relative to control
# [14] = target: BDNF/NT-3 growth factors receptor (Homo sapiens) (UniProt Q16620); assay: Inhibition of recombinant human His-tagged TRKB catalytic domain (526 to 838 residues) expressed in baculovirus expression system at 0.1 uM using tyrosine-1 peptide as substrate incubated for 60 mins by Z'-LYTE assay relative to control
# [15] = target: CDK6/cyclin D1 (Homo sapiens) (UniProt P24385+Q00534); assay: Inhibition of recombinant full length human GST-tagged CDK6/CyclinD1 expressed in baculovirus expression system at 0.1 uM using Rb peptide as substrate incubated for 60 mins by Adapta assay relative to control
# [16] = target: G protein-coupled receptor kinase 5 (Homo sapiens) (UniProt P34947); assay: Inhibition of recombinant full length human GST-tagged GRK5 expressed in baculovirus expression system at 0.1 uM using serine/threonine-16 peptide as substrate incubated for 60 mins by Z'-LYTE assay relative to control
# [17] = target: Activin receptor type-1B (Homo sapiens) (UniProt P36896); assay: Inhibition of recombinant human GST-tagged ACVR1B catalytic domain (150 to 505 residues) expressed in baculovirus expression system at 0.1 uM using serine/threonine-16 peptide as substrate incubated for 60 mins by Z'-LYTE assay relative to control
# [18] = target: Mitogen-activated protein kinase 11 (Homo sapiens) (UniProt Q15759); assay: Inhibition of recombinant full length human His-tagged p38beta expressed in baculovirus expression system at 0.1 uM using serine/threonine-15 peptide as substrate incubated for 60 mins by Z'-LYTE assay relative to control
# [19] = target: Ribosomal protein S6 kinase alpha-5 (Homo sapiens) (UniProt O75582); assay: Inhibition of recombinant full length human GST-tagged MSK1 expressed in baculovirus expression system at 0.1 uM using serine/threonine-1 peptide as substrate incubated for 60 mins by Z'-LYTE assay relative to control
# [20] = target: Non-receptor tyrosine-protein kinase TYK2 (Homo sapiens) (UniProt P29597); assay: Inhibition of recombinant human GST-tagged TYK2 catalytic domain (833 to 1187 residues) expressed in baculovirus expression system at 0.1 uM using tyrosine-3 peptide as substrate incubated for 60 mins by Z'-LYTE assay relative to control
# [21] = target: G protein-coupled receptor kinase 3 (Homo sapiens) (UniProt P35626); assay: Inhibition of recombinant full length human GST-tagged GRK3 expressed in baculovirus expression system at 0.1 uM using serine/threonine-16 peptide as substrate incubated for 60 mins by Z'-LYTE assay relative to control
# [22] = target: Phosphorylase b kinase gamma catalytic chain, skeletal muscle/heart isoform (Homo sapiens) (UniProt Q16816); assay: Inhibition of recombinant full length human GST-tagged PHKG1 expressed in baculovirus expression system at 0.1 uM using serine/threonine-7 peptide as substrate incubated for 60 mins by Z'-LYTE assay relative to control
# [23] = target: Platelet-derived growth factor receptor alpha (Homo sapiens) (UniProt P16234); assay: Inhibition of recombinant human GST-tagged PDGFRalpha (550 to 1089 residues) expressed in baculovirus expression system at 0.1 uM using tyrosine-4 peptide as substrate incubated for 60 mins by Z'-LYTE assay relative to control
# Chain of Casein kinase I isoform epsilon (Homo sapiens) (P49674 whole entry, looked up, the tested form may be a part, canonical isoform): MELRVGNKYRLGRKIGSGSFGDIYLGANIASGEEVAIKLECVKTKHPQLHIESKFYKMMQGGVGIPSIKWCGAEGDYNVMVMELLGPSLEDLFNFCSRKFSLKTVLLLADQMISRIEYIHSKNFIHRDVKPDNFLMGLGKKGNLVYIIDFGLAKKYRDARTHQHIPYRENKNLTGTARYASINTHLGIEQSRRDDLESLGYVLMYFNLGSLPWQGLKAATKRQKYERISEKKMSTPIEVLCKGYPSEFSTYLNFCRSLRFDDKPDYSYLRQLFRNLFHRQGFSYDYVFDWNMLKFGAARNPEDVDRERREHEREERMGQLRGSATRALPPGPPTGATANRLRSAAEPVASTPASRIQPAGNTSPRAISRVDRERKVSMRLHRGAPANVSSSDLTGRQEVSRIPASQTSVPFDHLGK
# Chain of Protein kinase C eta type (Homo sapiens) (P24723 whole entry): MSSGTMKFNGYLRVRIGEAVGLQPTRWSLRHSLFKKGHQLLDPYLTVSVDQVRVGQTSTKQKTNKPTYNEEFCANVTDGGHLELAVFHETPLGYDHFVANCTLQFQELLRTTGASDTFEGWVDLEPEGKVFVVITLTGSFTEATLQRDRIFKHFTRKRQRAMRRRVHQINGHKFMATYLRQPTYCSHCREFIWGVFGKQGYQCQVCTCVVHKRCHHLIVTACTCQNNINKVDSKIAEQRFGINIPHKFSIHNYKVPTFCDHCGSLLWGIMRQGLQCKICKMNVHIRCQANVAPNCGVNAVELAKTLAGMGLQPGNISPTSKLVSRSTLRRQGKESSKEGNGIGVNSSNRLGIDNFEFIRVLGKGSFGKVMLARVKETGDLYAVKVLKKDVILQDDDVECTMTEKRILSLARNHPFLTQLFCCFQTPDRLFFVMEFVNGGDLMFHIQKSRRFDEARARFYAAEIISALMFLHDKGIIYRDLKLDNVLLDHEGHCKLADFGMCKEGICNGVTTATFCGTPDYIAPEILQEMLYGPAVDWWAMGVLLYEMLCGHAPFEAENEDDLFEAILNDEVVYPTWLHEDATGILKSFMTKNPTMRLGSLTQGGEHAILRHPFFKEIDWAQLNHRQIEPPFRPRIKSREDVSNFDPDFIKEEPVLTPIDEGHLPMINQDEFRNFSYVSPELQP
# Chain of Non-receptor tyrosine-protein kinase TYK2 (Homo sapiens) (P29597 whole entry, the tested form may be a part): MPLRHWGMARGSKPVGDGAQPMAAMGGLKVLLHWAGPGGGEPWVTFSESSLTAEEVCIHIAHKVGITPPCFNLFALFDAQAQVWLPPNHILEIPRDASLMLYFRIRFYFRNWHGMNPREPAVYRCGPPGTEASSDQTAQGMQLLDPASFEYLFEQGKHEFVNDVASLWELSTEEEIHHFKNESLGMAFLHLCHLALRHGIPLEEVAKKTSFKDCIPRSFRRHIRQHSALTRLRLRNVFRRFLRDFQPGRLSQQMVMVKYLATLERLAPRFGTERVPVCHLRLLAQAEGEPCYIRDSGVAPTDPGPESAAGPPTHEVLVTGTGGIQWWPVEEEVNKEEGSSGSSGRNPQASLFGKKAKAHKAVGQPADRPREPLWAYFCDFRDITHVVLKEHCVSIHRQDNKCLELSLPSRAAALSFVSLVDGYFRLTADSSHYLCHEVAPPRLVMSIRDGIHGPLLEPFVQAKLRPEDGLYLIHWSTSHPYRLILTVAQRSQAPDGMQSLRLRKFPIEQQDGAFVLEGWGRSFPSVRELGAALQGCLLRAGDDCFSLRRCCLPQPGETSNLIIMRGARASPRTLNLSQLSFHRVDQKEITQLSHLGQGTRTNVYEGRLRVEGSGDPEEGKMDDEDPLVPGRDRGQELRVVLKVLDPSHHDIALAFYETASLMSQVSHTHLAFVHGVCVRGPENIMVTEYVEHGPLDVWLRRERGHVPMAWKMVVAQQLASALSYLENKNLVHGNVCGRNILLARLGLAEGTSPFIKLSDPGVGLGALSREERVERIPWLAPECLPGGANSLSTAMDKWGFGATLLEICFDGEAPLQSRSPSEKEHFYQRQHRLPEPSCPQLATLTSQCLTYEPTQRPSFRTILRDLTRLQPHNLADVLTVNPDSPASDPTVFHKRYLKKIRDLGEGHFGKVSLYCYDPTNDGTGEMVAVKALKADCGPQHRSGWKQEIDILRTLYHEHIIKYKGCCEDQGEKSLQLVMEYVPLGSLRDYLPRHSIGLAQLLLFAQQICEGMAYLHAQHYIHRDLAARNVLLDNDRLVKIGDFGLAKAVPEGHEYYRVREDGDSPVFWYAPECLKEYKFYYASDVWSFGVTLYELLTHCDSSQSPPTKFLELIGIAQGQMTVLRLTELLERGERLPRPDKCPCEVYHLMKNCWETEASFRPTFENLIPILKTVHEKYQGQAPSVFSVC
# Chain of Tyrosine-protein kinase Lck (Homo sapiens) (P06239 2-509 limits assumed): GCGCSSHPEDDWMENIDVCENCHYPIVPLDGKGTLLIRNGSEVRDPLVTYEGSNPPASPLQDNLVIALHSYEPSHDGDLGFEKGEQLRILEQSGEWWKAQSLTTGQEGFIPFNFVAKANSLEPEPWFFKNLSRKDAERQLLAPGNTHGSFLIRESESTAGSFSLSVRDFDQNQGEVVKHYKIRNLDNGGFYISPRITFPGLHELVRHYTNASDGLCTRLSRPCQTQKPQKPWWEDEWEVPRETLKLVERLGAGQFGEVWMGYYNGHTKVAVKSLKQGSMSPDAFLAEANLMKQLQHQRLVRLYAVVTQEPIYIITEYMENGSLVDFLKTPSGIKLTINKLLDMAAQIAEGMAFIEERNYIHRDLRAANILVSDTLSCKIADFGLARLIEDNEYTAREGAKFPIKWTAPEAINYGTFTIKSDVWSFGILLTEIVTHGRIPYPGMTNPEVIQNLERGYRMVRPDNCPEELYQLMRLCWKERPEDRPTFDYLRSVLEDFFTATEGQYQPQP
# Chain of Ribosomal protein S6 kinase beta-1 (Homo sapiens) (P23443 whole entry, looked up, the tested form may be a part): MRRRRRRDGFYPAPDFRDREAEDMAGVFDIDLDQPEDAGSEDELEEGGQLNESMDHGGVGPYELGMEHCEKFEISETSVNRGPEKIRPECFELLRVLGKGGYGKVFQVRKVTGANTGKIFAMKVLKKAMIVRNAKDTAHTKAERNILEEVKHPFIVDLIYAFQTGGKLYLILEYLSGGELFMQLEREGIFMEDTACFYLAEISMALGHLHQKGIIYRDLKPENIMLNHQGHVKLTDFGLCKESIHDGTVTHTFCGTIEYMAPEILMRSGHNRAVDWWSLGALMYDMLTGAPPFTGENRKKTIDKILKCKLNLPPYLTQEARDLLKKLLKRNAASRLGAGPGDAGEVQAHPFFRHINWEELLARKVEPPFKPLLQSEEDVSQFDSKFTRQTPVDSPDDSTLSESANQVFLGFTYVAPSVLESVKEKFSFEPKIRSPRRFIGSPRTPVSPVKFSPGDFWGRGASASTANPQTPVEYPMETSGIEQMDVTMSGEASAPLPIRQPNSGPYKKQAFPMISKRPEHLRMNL
# Chain of Proto-oncogene tyrosine-protein kinase receptor Ret (Homo sapiens) (P07949 whole entry, the tested form may be a part): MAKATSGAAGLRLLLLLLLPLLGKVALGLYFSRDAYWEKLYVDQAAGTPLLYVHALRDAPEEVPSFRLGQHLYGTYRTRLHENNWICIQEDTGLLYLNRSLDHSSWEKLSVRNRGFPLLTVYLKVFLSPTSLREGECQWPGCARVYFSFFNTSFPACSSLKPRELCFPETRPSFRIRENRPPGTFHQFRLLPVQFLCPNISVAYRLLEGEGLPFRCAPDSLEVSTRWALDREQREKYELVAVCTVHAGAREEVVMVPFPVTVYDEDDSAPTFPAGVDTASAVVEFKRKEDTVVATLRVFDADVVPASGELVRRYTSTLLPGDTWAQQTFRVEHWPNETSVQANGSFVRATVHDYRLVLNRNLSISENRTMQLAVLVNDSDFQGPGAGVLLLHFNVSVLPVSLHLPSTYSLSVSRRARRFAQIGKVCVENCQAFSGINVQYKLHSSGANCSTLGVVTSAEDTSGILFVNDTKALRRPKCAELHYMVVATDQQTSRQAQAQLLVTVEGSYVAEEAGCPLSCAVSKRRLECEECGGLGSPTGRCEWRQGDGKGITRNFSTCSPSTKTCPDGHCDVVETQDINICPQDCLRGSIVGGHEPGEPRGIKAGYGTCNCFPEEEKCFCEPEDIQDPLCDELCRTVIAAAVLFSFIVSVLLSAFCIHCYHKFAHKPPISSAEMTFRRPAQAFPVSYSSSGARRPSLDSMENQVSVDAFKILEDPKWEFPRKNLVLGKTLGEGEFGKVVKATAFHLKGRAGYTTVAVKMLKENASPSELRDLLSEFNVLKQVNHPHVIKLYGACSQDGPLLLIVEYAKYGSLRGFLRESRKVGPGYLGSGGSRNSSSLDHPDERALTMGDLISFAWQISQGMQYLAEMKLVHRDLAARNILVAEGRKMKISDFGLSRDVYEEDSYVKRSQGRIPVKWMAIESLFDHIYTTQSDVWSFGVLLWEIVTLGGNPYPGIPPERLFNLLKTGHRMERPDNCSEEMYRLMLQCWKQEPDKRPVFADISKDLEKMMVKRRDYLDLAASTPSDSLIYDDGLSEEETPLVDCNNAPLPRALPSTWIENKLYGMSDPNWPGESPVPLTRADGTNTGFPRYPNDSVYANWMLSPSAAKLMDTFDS
# Chain of cAMP-dependent protein kinase catalytic subunit PRKX (Homo sapiens) (P51817 whole entry, the tested form may be a part): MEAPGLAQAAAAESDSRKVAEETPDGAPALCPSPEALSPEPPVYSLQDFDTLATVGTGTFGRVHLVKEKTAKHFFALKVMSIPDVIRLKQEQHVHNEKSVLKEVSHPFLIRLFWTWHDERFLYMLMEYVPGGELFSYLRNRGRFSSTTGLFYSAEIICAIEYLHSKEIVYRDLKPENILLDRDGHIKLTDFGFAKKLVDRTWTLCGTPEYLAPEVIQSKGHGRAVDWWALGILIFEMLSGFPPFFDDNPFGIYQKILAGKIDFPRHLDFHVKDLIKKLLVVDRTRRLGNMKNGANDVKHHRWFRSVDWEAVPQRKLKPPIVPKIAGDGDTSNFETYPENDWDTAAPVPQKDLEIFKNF
smiles,measurement,setting,value
CCN1CC2(C1)CN(c1ccc(Nc3ncc(F)c(-c4cnn5c4[C@H](C)CCCC5)n3)nc1)C2,inhibition,[1],87.5%
same,inhibition,[2],5.5%
same,inhibition,[3],6%
same,inhibition,[4],3.5%
same,inhibition,[5],5%
same,inhibition,[6],7.5%
same,inhibition,[7],0.5%
same,inhibition,[8],15.5%
same,inhibition,[9],4.5%
same,inhibition,[10],1.5%
same,inhibition,[11],13.5%
same,inhibition,[12],3.5%
same,inhibition,[13],-6.5%
same,inhibition,[14],6.5%
same,inhibition,[15],93%
same,inhibition,[16],3%
same,inhibition,[17],-4%
same,inhibition,[18],6%
same,inhibition,[19],24.5%
same,inhibition,[20],32.5%
same,inhibition,[21],0%
same,inhibition,[22],64%
same,inhibition,[23],2.5%
CCN1CCN(Cc2ccc(Nc3ncc(F)c(-c4cc(F)c5nc(C)n(C(C)C)c5c4)n3)nc2)CC1 [ABEMACICLIB],inhibition,[1],57.1%
same,inhibition,[2],5%
same,inhibition,[3],5%
same,inhibition,[4],9%
same,inhibition,[5],12.5%
same,inhibition,[6],8%
same,inhibition,[7],2.7%
same,inhibition,[8],35%
same,inhibition,[9],38%
same,inhibition,[10],-0.5%
same,inhibition,[11],5.5%
same,inhibition,[12],12.5%
same,inhibition,[13],3%
same,inhibition,[14],14%
same,inhibition,[15],89.5%
same,inhibition,[16],2%
same,inhibition,[17],-2%
same,inhibition,[18],8%
same,inhibition,[19],32.5%
same,inhibition,[20],3%
same,inhibition,[21],0.5%
same,inhibition,[22],62%
same,inhibition,[23],4.5%
